Here are results for 6 compounds from US8197865B2, “Methods and compositions for modulating hair growth or regrowth” (Access Business Group International LLC, priority 2005, dated 2012).

For assay [1], the system named is DHT synthesis in DU-145 cells. In words: Dihydrotestosterone (DHT) synthesis by human prostate cells (DU-145), DHT ELISA. The class given is cell-based. Conditions: for Average % DHT Synthesis Observed: % control vs DHT in untreated control cells, testosterone 1 nM, 6 hours, test concentrations typically 0.1, 1, 10 μg/ml.
Assay [2] concerns VEGF secretion by human dermal papilla cells. Put plainly: VEGF secretion by human dermal papilla cells, ELISA. The class given is cell-based. The conditions noted are these: for Average % VEGF Secretion: % control vs untreated control cells, overnight, typically 0.1, 1, 10 μg/ml. On the procedure:
(§1) The ability of each of the ingredients in the compositions of the present invention to stimulate or increase secretion of growth factors, such as VEGF and KGF was measured. One of ordinary skill in the art will appreciate that there are numerous methods for measuring the ability of a substance to stimulate secretion of a growth factor. One example of such a method is set forth below and described in Lachgar S., et al., 1998. “Minoxidil upregulates the expression of vascular endothelial growth factor in human hair dermal papilla cells.” Br J. Dermatol. 138:407-11, the entire contents of which are incorporated by reference herein.
(§2) For example, to measure the ability of a compound to stimulate secretion of a growth factor, 100 mg of each test sample in powder form was measured. A 50 mg/ml total extract of the sample was then prepared by sequential addition of DMSO:ethanol:water in a ratio of 5:3:2. One of ordinary skill in the art will understand that other amounts of sample may be used. For example, to prepare a 100 mg sample, 1 mL DMSO, 0.6 ml ethanol, and 0.4 ml water are mixed together.
(§3) This solution is extensively mixed by vortexing and incubating for 10 minutes in a sonic water bath. Each sample ingredient is diluted from the stock concentration of 50 mg/ml to a test concentration (i.e., typically, 0.1, 1, and 10 μg/ml) in tissue culture media.
(§4) The effect of each test sample ingredient may be measured using human dermal papilla cells, which may be purchased from Cell Applications (San Diego, Calif.). In particular, the cells are plated at 3.5×10^4/well in a standard 24 well tissue culture plate using a proprietary medium supplied by the company. Following plating, the cells are incubated overnight. The following day, the media in the wells is aspirated and replaced with fresh media containing the diluted sample ingredient. The cells are again incubated overnight with the samples.
(§5) Growth factors in the cell culture supernatants are assayed using commercially available ELISA kits according to the manufacture's specifications. For example, an ELISA assay may be run to detected either KGF, VEGF, or both. An ELISA kit for detecting KGF may be purchased from R&D Systems (Minneapolis, Minn.). An ELISA kit for detecting VEGF may be purchased from Biosource International (Camarillo, Calif.).
(§6) Data are reported as % control compared to the level of growth factor secreted from untreated control cells.

Assay [3] concerns KGF secretion by human dermal papilla cells. Put plainly: KGF secretion by human dermal papilla cells, ELISA. It counts as cell-based. The conditions noted are these: for Average % KGF Secretion: % control vs untreated control cells, overnight, typically 0.1, 1, 10 μg/ml. On the procedure: as §1, §2, §3, §4, §5, §6
A general note: ELISA stands for enzyme-linked immunosorbent assay.

Assay [4] deals with proteasome. Put plainly: Proteasome inhibition, fluorescent substrate kit. Conditions: % control vs proteasome activity without inhibitor or test sample; test concentration given as 50 mg/ml. The class given is biochemical. On the procedure: The ability of each of the ingredients in the compositions of the present invention to inhibit proteasome activity was measured. One of ordinary skill in the art will appreciate that there are numerous methods for measuring the ability of a substance to inhibit proteasome activity. One example of such a method is set forth below and described in U.S. Pat. No. 6,410,512, the entire contents of which are incorporated by reference herein.
For example, to measure the ability of a compound to inhibit proteasome activity, 100 mg of each test sample in neat form was measured. A 50 mg/ml total extract of the sample was then prepared by sequential addition of DMSO:ethanol:water in a ratio of 5:3:2. One of ordinary skill in the art will understand that other amounts of sample may be used. For example, to prepare a 100 mg sample, 1 mL DMSO, 0.6 ml ethanol, and 0.4 ml water are mixed together.
This solution is extensively mixed by vortexing and incubating for 10 minutes in a sonic water bath. Each sample ingredient is diluted from the stock concentration to a test concentration of 50 mg/ml in proteasome reaction buffer media.
Inhibition of proteasome activity may be assayed using a proteasome kit that is commercially available, for example from Boston Biochem (Boston, Mass.). Test sample ingredients are first added to the proteasome provided with the kit. The fluorescent proteasome substrate is then added and cleavage of the substrate by the proteasome is monitored using a fluorescence plate reader. Data are expressed as % control compared to proteasome activity without any inhibitor or test sample added.
as §6

As for `O=c1cc(-c2ccc(O)c(-c3c(O)cc(O)c4c(=O)cc(-c5ccc(O)cc5)oc34)c2)oc2cc(O)cc(O)c12` [Amentoflavone], the “Average % DHT Synthesis Observed” value in assay [1] was determined as 163.9%. The “Average % VEGF Secretion” value in assay [2] came to 186.2%. Further, in assay [3], the “Average % KGF Secretion” value turned out to be 209.5%.
As to `CC1=C(/C=C/C(C)=C/C=C/C(C)=C/C=C/C=C(C)/C=C/C=C(C)/C=C/C2=C(C)C(=O)[C@@H](O)CC2(C)C)C(C)(C)C[C@H](O)C1=O` [Astaxanthin], in assay [1], the “Average % DHT Synthesis Observed” value was 103.9%. Moreover, in assay [2], the “Effect on VEGF secretion, in words (summary of Table 3)” value is “most potent stimulators of VEGF” and the “Average % VEGF Secretion” value is 249.4%. Moreover, the “Average % KGF Secretion” value in assay [3] was 327.1%. In addition, the “Average % Proteasome Activity” value in assay [4] was 114.0%.
For the compound `C[C@@H]1O[C@@H](O[C@H]2C(=O)c3c(O)cc(O)cc3O[C@@H]2c2ccc(O)c(O)c2)[C@H](O)[C@H](O)[C@H]1O` [Astilbin], the “Average % DHT Synthesis Observed” value in assay [1] is reported as 78.0%. For the same compound, the “Average % VEGF Secretion” value in assay [2] was 122.9%. Further, in assay [3], the “Effect on KGF secretion, in words (summary of Table 3)” value is on record as “most potent inhibitors of KGF secretion” and the “Average % KGF Secretion” value is on record as 85.4%. Besides, in assay [4], the “Average % Proteasome Activity” value is on record as 47.7%.
Regarding `O=C(CCCCc1ccc2c(c1)OCO2)N1CCCCC1` [Cosmoperine ™, tetrahydropiperine], the “Average % DHT Synthesis Observed” value in assay [1] is 130.1%. Besides, the “Average % VEGF Secretion” value in assay [2] worked out at 172.5%. Moreover, in assay [3], the “Effect on KGF secretion, in words (summary of Table 3)” value is listed as “most potent inhibitors of KGF secretion” and the “Average % KGF Secretion” value is 75.1%. The “Average % Proteasome Activity” value in assay [4] amounted to 67.6%.
Consider `O=c1cc(-c2ccc(O)c(O)c2)oc2cc(O)cc(O)c12` [Luteolin], for which the “Average % DHT Synthesis Observed” value in assay [1] was determined as 96.2%. Further, the “Average % VEGF Secretion” value in assay [2] was determined as 123.2%. In addition, the “Average % KGF Secretion” value in assay [3] was 147.8%. Besides, the “Average % Proteasome Activity” value in assay [4] is listed as 76.4%.
As for “disodium lauraminodipropionate tocopheryl phosphate [Vital ET ™]”, in assay [1], the “Effect on DHT synthesis, in words (summary of Table 2)” value is reported as “most potent inhibitors of DHT synthesis” and the “Average % DHT Synthesis Observed” value came out at 72.1%. In addition, the “Average % VEGF Secretion” value in assay [2] is 107.9%. The “Average % KGF Secretion” value in assay [3] was found to be 103.0%. Also, the “Average % Proteasome Activity” value in assay [4] turned out to be 68.3%.
